Measurements taken from patent publication US20240324590A1, “COMBINATIONS OF TRIAZOLINONE HERBICIDES WITH SAFENERS” (UPL CORPORATION LIMITED, priority 2021, published 2024).

Experiments:
Assay type in all cases: in vivo
corn crop [1] = experiment: % phytotoxicity in corn crop after spraying tank mix; details: for Phytotoxicity (%) in corn crop: flucarbazone 30 g ai/ha, safener cyprosulfamid 66 / isoxadifen 38 / mefenpyr 30 g ai/ha
Protocol: Treatment: The present invention has employed a tank mix combination of Flucarbazone and Cyprosulfamid as the safener to evaluate its percentage phytotoxicity and its efficacy in the control of weeds.
The tank mix combination of Flucarbazone and Cyprosulfamid as the safener was formulated and the combination was sprayed onto corn crop and the results on the phytotoxicity in corn were determined. These observations relating to % phytotoxicity were made during a time interval of over a month. The duration at which the % phytotoxicity were determined at time intervals as follows: 3 DAA (3 days after application), 5 DAA (5 days after application), 7 DAA (7 days after application), 14 DAA (14 days after application), 21 DAA (21 days after application); 28 DAA (28 days after application); 35 DAA (35 days after application); 42DAA (42 days after application).
• (i) Treatment: The present invention has employed a tank mix of Flucarbazone and Isoxadifen as the safener to evaluate its percentage phytotoxicity in corn crop. • (ii) % Phytotoxicity: This % phytotoxicity was observed by the present inventors to be as high as 48% at 14 DAA in crops treated with Flucarbazone and Isoxadifen.
B) Flucarbazone with Mefenpyr as the Safener • (i) Treatment: The present invention has employed a tank mix combination of Flucarbazone and […] as the safener to evaluate its percentage phytotoxicity in corn crop.

corn crop [2] = experiment: % phytotoxicity on corn varieties, greenhouse; details: flucarbazone 45 g ai/ha alone
Protocol: (§1) The combination of flucarbazone with safeners selected from cyprosulfamid and isoxadifen were evaluated in terms of the increase or decrease in height of the treated corn crop (cm) and % phytotoxicity. The experimental evaluations were conducted under greenhouse conditions with 4 repetitions, using a spray volume of […]. The different corn varieties tested were SYN8A98 TLTG and XB 8010.
The observations for determining corn height were made at 7 DAA (days after application), 14 DAA and 21 DAA, of the herbicide. The treatment employed and the corresponding observations are detailed in the table 9 (i) & (ii) below: […]

redroot pigweed = experiment: % efficacy of weed control against redroot pigweed in corn crop; details: for % Efficacy for control of weeds: redroot pigweed in corn crop, flucarbazone 30 g ai/ha, cyprosulfamid 66 g ai/ha
Protocol: The tank mix combination of Flucarbazone and Cyprosulfamid as the safener was formulated and the combination was sprayed onto corn crop and the results on the efficacy in weed control were determined.

corn crop [3] = experiment: Height of corn plants after treatment, greenhouse; details: for Crop height (cm) at 14 DAA: safener 90 g ai/ha
Protocol: as §1
The observations for determining corn height were made at 14 DAA (days after application) of the herbicide. The treatment employed and the corresponding observations are detailed in the table 8 (i) & (ii) below: […]

## COc1nn(C(=O)NS(=O)(=O)c2ccccc2OC(F)(F)F)c(=O)n1C [flucarbazone, Flucarbazone]
Corn crop [1]; 3DAA & 5DAA, sub-column 1 of 3 (unlabelled)
  Phytotoxicity (%) in corn crop: 0%
Corn crop [1]; 3DAA & 5DAA, sub-column 3 of 3 (unlabelled)
  Phytotoxicity (%) in corn crop: 0%
Corn crop [1]; 3DAA & 5DAA
  Phytotoxicity (%) in corn crop: 0%
Corn crop [1]; 7DAA, sub-column 1 of 3 (unlabelled)
  Phytotoxicity (%) in corn crop: 28.8%
Corn crop [1]; 7DAA, sub-column 3 of 3 (unlabelled)
  Phytotoxicity (%) in corn crop: 28.8%
Corn crop [1]; 7DAA
  Phytotoxicity (%) in corn crop: 28.8%
Corn crop [1]; 14 DAA, sub-column 1 of 3 (unlabelled)
  Phytotoxicity (%) in corn crop: 51.3%
Corn crop [1]; 14 DAA, sub-column 3 of 3 (unlabelled)
  Phytotoxicity (%) in corn crop: 50%
Corn crop [1]; 14 DAA
  Phytotoxicity (%) in corn crop: 53.8%
Corn crop [1]; 21DAA, sub-column 1 of 3 (unlabelled)
  Phytotoxicity (%) in corn crop: 50%
Corn crop [1]; 21DAA, sub-column 3 of 3 (unlabelled)
  Phytotoxicity (%) in corn crop: 46.3%
Corn crop [1]; 21DAA
  Phytotoxicity (%) in corn crop: 51.3%
Corn crop [1]; 28DAA, sub-column 1 of 3 (unlabelled)
  Phytotoxicity (%) in corn crop: 47.5%
Corn crop [1]; 28DAA, sub-column 3 of 3 (unlabelled)
  Phytotoxicity (%) in corn crop: 39.8%
Corn crop [1]; 28DAA
  Phytotoxicity (%) in corn crop: 56.3%
Corn crop [1]; 35DAA, sub-column 1 of 3 (unlabelled)
  Phytotoxicity (%) in corn crop: 44.9%
Corn crop [1]; 35DAA, sub-column 3 of 3 (unlabelled)
  Phytotoxicity (%) in corn crop: 39.9%
Corn crop [1]; 35DAA
  Phytotoxicity (%) in corn crop: 53.8%
Corn crop [1]; 42DAA, sub-column 1 of 3 (unlabelled)
  Phytotoxicity (%) in corn crop: 42.4%
Corn crop [1]; 42DAA, sub-column 3 of 3 (unlabelled)
  Phytotoxicity (%) in corn crop: 38.7%
Corn crop [1]; 42DAA
  Phytotoxicity (%) in corn crop: 48.7%
Corn crop [1]; at 14 DAA, highest level stated in text
  % phytotoxicity levels in corn crop: up to 50%
Corn crop [1]; over a period of one month after application
  % phytotoxicity in corn crop: significant damage
Corn crop [2]; 7DAA
  % phytotoxocity of corn crop variety P4285VYHR: 26 ab %
  % phytotoxocity of corn crop variety SYN8A98 TLTG: 19 cd %
  % phytotoxocity of corn crop variety XB 8010: 28 a %
Corn crop [2]; 14 DAA
  % phytotoxocity of corn crop variety P4285VYHR: 34 b %
  % phytotoxocity of corn crop variety SYN8A98 TLTG: 47 ab %
  % phytotoxocity of corn crop variety XB 8010: 52 ab %
Corn crop [2]; 21 DAA
  % phytotoxocity of corn crop variety P4285VYHR: 32 b %
  % phytotoxocity of corn crop variety SYN8A98 TLTG: 48 bc %
  % phytotoxocity of corn crop variety XB 8010: 51 ab %
Redroot pigweed; 7 DAA
  % Efficacy for control of weeds: 22.5%
Redroot pigweed; 14 DAA
  % Efficacy for control of weeds: 42.5%
Redroot pigweed; 21 DAA
  % Efficacy for control of weeds: 45%
Redroot pigweed; 28 DAA
  % Efficacy for control of weeds: 48.8%
Redroot pigweed; 35 DAA
  % Efficacy for control of weeds: 48.8%
Redroot pigweed; 42 DAA
  % Efficacy for control of weeds: 48.8%
Redroot pigweed; over a duration of one month, corn crop
  % efficacy control of redroot pigweed: reduced % efficacy
Corn crop [3]; 14 DAA, compared with untreated corn
  Height of the corn plants: reduction in height
Corn crop [3]; corn variety SYN8A98 TLTG, flucarbazone 30 g ai/ha
  Crop height (cm) at 14 DAA: 14 cm
Corn crop [3]; corn variety XB 8010, flucarbazone 30 g ai/ha
  Crop height (cm) at 14 DAA: 11 cm
